The results in this text go back to ChEMBL document CHEMBL1129756, “Conformationally restricted TRH analogs: a probe for the pyroglutamate region” (J Med Chem, 1996).

The target in test [1] is T1, Thyrotropin-releasing hormone receptor (Mus musculus, UniProt P21761).
T1 sequence (P21761 whole entry): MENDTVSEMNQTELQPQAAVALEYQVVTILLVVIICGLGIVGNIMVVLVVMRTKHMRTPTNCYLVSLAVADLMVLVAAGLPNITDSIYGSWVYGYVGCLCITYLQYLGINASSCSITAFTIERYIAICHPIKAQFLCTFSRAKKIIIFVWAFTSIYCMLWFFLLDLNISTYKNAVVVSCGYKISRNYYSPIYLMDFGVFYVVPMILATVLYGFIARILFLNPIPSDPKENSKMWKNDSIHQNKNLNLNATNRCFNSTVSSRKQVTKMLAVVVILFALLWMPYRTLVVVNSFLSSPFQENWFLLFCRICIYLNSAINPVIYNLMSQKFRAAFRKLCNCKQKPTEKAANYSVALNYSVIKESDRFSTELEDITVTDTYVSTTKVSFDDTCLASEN
The experiment in a line: Binding affinity against TRH-R receptor in AtT-20 mouse pituitary tumor cells.

Test [2] addresses T1, Thyrotropin-releasing hormone receptor. As to the kind of experiment: Effective concentration required to activate TRH-R receptor in AtT-20 mouse pituitary tumor cells.

Structures are written as SMILES.

Usually Ki stands for a measure of affinity in units of concentration, obtained from inhibition or displacement. A higher Ki goes with weaker binding. As for `Cn1cnc(C[C@H](NC(=O)[C@@H]2CCC(=O)N2)C(=O)N2CCC[C@H]2C(N)=O)c1`, affinity in test [1] was put at a Ki of 1.2 nM. As a reminder, the EC50 is the concentration that produces a half-maximal response. As for `NC(=O)[C@@H]1CCCN1C(=O)[C@H](Cc1ccccc1)N1CC[C@]2(CCC(=O)N2)C1=O`, in test [1], affinity was put at a Ki of 4400 nM. In test [2], this compound returned an EC50 of 290 nM. As to `NC(=O)[C@@H]1CCCN1C(=O)[C@H](Cc1cnc[nH]1)NC(=O)[C@@H]1CCC(=O)N1` [PROTIRELIN], the EC50 in test [2] amounted to 0.68 nM.
